The values that follow come from article PMC2874894 (Investigative ophthalmology & visual science, 2009).

Each structure is given as a SMILES string.

The experiment has as its target rPASP (Pseudomonas aeruginosa small protease) (Pseudomonas aeruginosa, UniProt Q9I690). The experiment is described as follows: fluorescein-gelatin hydrolysis, fluorescence. As to conditions: fluorescein-conjugated gelatin substrate; rPASP 10 ug; 24 h, 37 °C. The experiment is classed as biochemical.

Sequence of rPASP (Pseudomonas aeruginosa small protease) (Q9I690 whole entry): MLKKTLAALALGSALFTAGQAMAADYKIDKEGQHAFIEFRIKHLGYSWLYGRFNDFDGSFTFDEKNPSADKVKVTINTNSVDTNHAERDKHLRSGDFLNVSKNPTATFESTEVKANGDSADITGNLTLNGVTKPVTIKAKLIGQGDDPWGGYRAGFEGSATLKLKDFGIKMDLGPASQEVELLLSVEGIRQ

As to `Cc1ccc(S(=O)(=O)N[C@@H](CCCCN)C(=O)CCl)cc1` [TLCK], the dose-dependent inhibition entry is given as “Only TLCK demonstrated dose-dependent inhibition of rPASP activity”.
